# Like-named read-outs stand apart in the source and are kept apart here.
# Assays:
# Type in all cases: in vivo
# [1] = system: oilseed rape (Brassica napus); experiment: Test E pre-/postemergence plant response; conditions: scale 0 to 100, read-out: Plant response rating, Oilseed Rape; for plant injury at 16 g/ha: 16 g ai/ha; for plant injury at 31 g/ha: 31 g ai/ha; for plant injury at 62 g/ha: 62 g ai/ha; for plant injury at 125 g/ha: 125 g ai/ha
# Description: (§1) Seeds of plant species selected from bluegrass (annual bluegrass, Poa annua), blackgrass (Alopecurus myosuroides), canarygrass (Phalaris minor), chickweed (common chickweed, Stellaria media), galium (catchweed bedstraw, Galium aparine), downy bromegrass (Bromus tectorum), field poppy (Papaver rhoeas), field violet (Viola arvensis), green foxtail (Setaria viridis), deadnettle (henbit deadnettle, Lamium amplexicaule), Italian ryegrass (Lolium multiflorum), kochia (Kochia scoparia), lambsquarters (Chenopodium album), oilseed rape (Brassica napus), pigweed (Amaranthus retroflexus), Russian thistle (Salsola iberica), chamomile (scentless chamomile, Matricaria inodora), speedwell (bird's-eye speedwell, Veronica persica), spring barley (Hordeum vulgare), spring wheat (Triticum aestivum), wild buckwheat (Polygonum convolvulus), wild mustard (Sinapis arvensis), wild oat (Avena fatua), wild radish (Raphanus raphanistrum), windgrass (Apera spica-venti), winter barley (Hordeum vulgare), and winter wheat (Triticum aestivum) were planted into a silt loam soil and treated preemergence with test chemicals formulated in a non-phytotoxic solvent mixture which included a surfactant. At the same time, these species were planted in pots containing Redi-Earth® planting medium (Scotts Company, 14111 Scottslawn Road, Marysville, Ohio 43041) comprising spaghnum peat moss, vermiculite, wetting agent and starter nutrients and treated with postemergence applications of the test chemicals formulated in the same manner. Plants ranged in height from 2 to 18 cm (1- to 4-leaf stage).
# (§2) Treated plants and controls were maintained in a controlled growth environment for 7 to 21 days after which time all species were compared to controls and visually evaluated. Plant response ratings, summarized in Table E, are based on a scale of 0 to 100 where 0 is no effect and 100 is complete control. A dash (-) response means no test result.
# [2] = system: blackgrass (Alopecurus myosuroides); experiment: Test E pre-/postemergence plant response; conditions: scale 0 to 100, read-out: Plant response rating, Blackgrass; for pest or weed control at 16 g/ha: 16 g ai/ha; for pest or weed control at 31 g/ha: 31 g ai/ha; for pest or weed control at 62 g/ha: 62 g ai/ha; for pest or weed control at 125 g/ha: 125 g ai/ha
# Description: as §1, §2
# [3] = system: chamomile (scentless chamomile, Matricaria inodora); experiment: Test E pre-/postemergence plant response; conditions: Tripleurospermum inodorum, post-emergence, Postemergence, scale 0 to 100, read-out: Plant response rating, Chamomile
# Description: as §1, §2
# wild oat (Avena fatua) = experiment: Test E pre-/postemergence plant response; conditions: scale 0 to 100, read-out: Plant response rating, Oat, Wild; for pest or weed control at 16 g/ha: 16 g ai/ha; for pest or weed control at 31 g/ha: 31 g ai/ha; for pest or weed control at 62 g/ha: 62 g ai/ha; for pest or weed control at 125 g/ha: 125 g ai/ha
# Description: as §1, §2
# kochia (Kochia scoparia) = experiment: Test E pre-/postemergence plant response; conditions: Bassia scoparia, scale 0 to 100, read-out: Plant response rating, Kochia; for pest or weed control at 16 g/ha: 16 g ai/ha; for pest or weed control at 31 g/ha: 31 g ai/ha; for pest or weed control at 62 g/ha: 62 g ai/ha; for pest or weed control at 125 g/ha: 125 g ai/ha
# Description: as §1, §2
# [4] = system: green foxtail (Setaria viridis); experiment: Test F pre-/postemergence plant response; conditions: Setaria viridis, pre-emergence, Preemergence, scale 0 to 100, read-out: Plant response rating, Foxtail, Green
# How it was run: (§3)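 Plant response is a visual score from 0, meaning no effect, to 100, meaning complete control, assigned by comparison with untreated plants. Ratings were made 14 to 21 days after preemergence application to seeded silt loam or postemergence application to plants at the 1- to 4-leaf stage.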
# [5] = system: wild poinsettia (Euphorbia heterophylla); experiment: Test F pre-/postemergence plant response; conditions: Euphorbia heterophylla, scale 0 to 100, read-out: Plant response rating, Poinsettia, Wild
# How it was run: as §3
# [6] = system: Brazilian crabgrass (Digitaria horizontalis); experiment: Test F pre-/postemergence plant response; conditions: Digitaria horizontalis, scale 0 to 100, read-out: Plant response rating, Crabgrass, Brazil
# How it was run: as §3
# [7] = system: johnsongrass (Sorghum halepense); experiment: Test F pre-/postemergence plant response; conditions: Sorghum halepense, pre-emergence, scale 0 to 100, read-out: Plant response rating, Johnsongrass
# How it was run: as §3
# [8] = post-emergence, 31 g ai/ha Postemergence
# [9] = post-emergence, 62 g ai/ha Postemergence
# [10] = pre-emergence, 31 g ai/ha Preemergence
smiles,measurement,setting,value
"Fc1cccc(Oc2ncc(Cl)cn2)c1-c1cc(C(F)F)on1 [Compound 55, 5-chloro-2-[2-[5-(difluoromethyl)-3-isoxazolyl]-3-fluorophenoxy]pyrimidine]",plant injury at 16 g/ha,"[1]; post-emergence, Postemergence",75%
same,plant injury at 31 g/ha,"[1]; post-emergence, Postemergence",75%
same,plant injury at 62 g/ha,"[1]; post-emergence, Postemergence",90%
same,plant injury at 125 g/ha,"[1]; post-emergence, Postemergence",95%
same,plant injury at 16 g/ha,"[1]; pre-emergence, Preemergence",20%
same,plant injury at 31 g/ha,"[1]; pre-emergence, Preemergence",100%
same,plant injury at 62 g/ha,"[1]; pre-emergence, Preemergence",100%
same,plant injury at 125 g/ha,"[1]; pre-emergence, Preemergence",100%
same,pest or weed control at 16 g/ha,"[2]; post-emergence, Postemergence",5%
same,pest or weed control at 31 g/ha,"[2]; post-emergence, Postemergence",10%
same,pest or weed control at 62 g/ha,"[2]; post-emergence, Postemergence",20%
same,pest or weed control at 125 g/ha,"[2]; post-emergence, Postemergence",40%
same,pest or weed control at 16 g/ha,"[2]; pre-emergence, Preemergence",0%
same,pest or weed control at 31 g/ha,"[2]; pre-emergence, Preemergence",15%
same,pest or weed control at 62 g/ha,"[2]; pre-emergence, Preemergence",60%
same,pest or weed control at 125 g/ha,"[2]; pre-emergence, Preemergence",100%
same,pest or weed control at 16 g/ha,[3]; 16 g ai/ha,5%
same,pest or weed control at 31 g/ha,[3]; 31 g ai/ha,5%
same,pest or weed control at 62 g/ha,[3]; 62 g ai/ha,5%
same,pest or weed control at 125 g/ha,[3]; 125 g ai/ha,5%
same,pest or weed control at 16 g/ha,"wild oat (Avena fatua); post-emergence, Postemergence",10%
same,pest or weed control at 31 g/ha,"wild oat (Avena fatua); post-emergence, Postemergence",15%
same,pest or weed control at 62 g/ha,"wild oat (Avena fatua); post-emergence, Postemergence",40%
same,pest or weed control at 125 g/ha,"wild oat (Avena fatua); post-emergence, Postemergence",50%
same,pest or weed control at 16 g/ha,"wild oat (Avena fatua); pre-emergence, Preemergence",0%
same,pest or weed control at 31 g/ha,"wild oat (Avena fatua); pre-emergence, Preemergence",15%
same,pest or weed control at 62 g/ha,"wild oat (Avena fatua); pre-emergence, Preemergence",35%
same,pest or weed control at 125 g/ha,"wild oat (Avena fatua); pre-emergence, Preemergence",45%
same,pest or weed control at 16 g/ha,"kochia (Kochia scoparia); post-emergence, Postemergence",65%
same,pest or weed control at 31 g/ha,"kochia (Kochia scoparia); post-emergence, Postemergence",70%
same,pest or weed control at 62 g/ha,"kochia (Kochia scoparia); post-emergence, Postemergence",85%
same,pest or weed control at 125 g/ha,"kochia (Kochia scoparia); post-emergence, Postemergence",85%
same,pest or weed control at 16 g/ha,"kochia (Kochia scoparia); pre-emergence, Preemergence",55%
same,pest or weed control at 31 g/ha,"kochia (Kochia scoparia); pre-emergence, Preemergence",100%
same,pest or weed control at 62 g/ha,"kochia (Kochia scoparia); pre-emergence, Preemergence",100%
same,pest or weed control at 125 g/ha,"kochia (Kochia scoparia); pre-emergence, Preemergence",100%
same,pest or weed control at 31 g/ha,[4]; 31 g ai/ha,20%
same,pest or weed control at 62 g/ha,[4],70%
same,pest or weed control at 31 g/ha,[5]; [8],35%
same,pest or weed control at 62 g/ha,[5]; [9],45%
same,pest or weed control at 31 g/ha,[5]; [10],0%
same,pest or weed control at 62 g/ha,"[5]; pre-emergence, Preemergence",30%
same,pest or weed control at 31 g/ha,[6]; [8],40%
same,pest or weed control at 62 g/ha,[6]; [9],30%
same,pest or weed control at 31 g/ha,[6]; [10],75%
same,pest or weed control at 62 g/ha,"[6]; pre-emergence, 62 g ai/ha Preemergence",100%
same,pest or weed control at 31 g/ha,[7]; 31 g ai/ha Preemergence,20%
same,pest or weed control at 62 g/ha,[7]; Preemergence,90%

# — patent US10131652B2, “Pyrimidinyloxy benzene derivatives as herbicides” (E. I. DU PONT DE NEMOURS AND COMPANY, priority 2014, dated 2018)
